Paper PMC6152791, “Synthesis and Evaluation of Novel 2-Pyrrolidone-Fused (2-Oxoindolin-3-ylidene)methylpyrrole Derivatives as Potential Multi-Target Tyrosine Kinase Receptor Inhibitors” (Molecules : A Journal of Synthetic Chemistry and Natural …, 2017)

What was measured:
aurora A = target: T1, aurora A (Homo sapiens, UniProt O14965); assay: In vitro kinase assay (HotSpot, 33P); format: biochemical; conditions: 1.0 μM compound, ATP 10.0 μM
T1 construct: purchased Reaction Biology Corporation
T1 sequence (O14965 1-403): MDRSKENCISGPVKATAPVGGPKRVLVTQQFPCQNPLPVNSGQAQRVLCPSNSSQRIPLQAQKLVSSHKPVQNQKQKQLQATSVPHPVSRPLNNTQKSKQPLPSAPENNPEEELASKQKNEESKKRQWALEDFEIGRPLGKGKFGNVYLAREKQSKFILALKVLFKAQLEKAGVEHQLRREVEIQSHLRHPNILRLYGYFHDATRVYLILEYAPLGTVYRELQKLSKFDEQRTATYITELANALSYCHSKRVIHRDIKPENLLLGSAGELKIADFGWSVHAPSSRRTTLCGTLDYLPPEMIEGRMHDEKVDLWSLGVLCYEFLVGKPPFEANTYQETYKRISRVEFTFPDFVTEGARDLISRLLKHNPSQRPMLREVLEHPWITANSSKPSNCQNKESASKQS
Method: […]. Briefly, specific kinase and substrate and required cofactors were prepared in reaction buffer. Test compounds were added into the reaction, after 20 min, a mixture of ATP (Sigma, St. Louis, MO, USA) and ^33P ATP (Perkin Elmer, Waltham, MA, USA) was added to make a final concentration of 10.0 μM. Reactions were stood at room temperature for 120 min, and spot the reactions onto P81 ion exchange filter paper (Whatman Inc., Piscataway, NJ, USA). Unbound phosphate was removed by extensive washing of filters in 0.1% phosphoric acid. Kinase activity data was reported as the percent remaining kinase activity in test compounds compared to solvent control (DMSO).

HUVECs = assay: In vitro VEGF-induced tube formation assay (Kurabo angiogenesis kit); format: cell-based, human; conditions: for IC50: Homo sapiens, HUVEC, 264 h, VEGF 10 ng/mL, 11 days, read-out: IC50 of Tube Area
Method: Angiogenesis Kit (Kurabo, Neyagawa, Osaka, Japan) was used in accordance with the manufacturer’s protocols. Briefly, HUVECs and fibroblasts were co-cultured in 24-well plates with basal medium or solvent control medium (basal medium containing 1.0% DMSO) or solvent control medium containing 9, 10, 11, and 12 (0.50 μM, 0.25 μM and 0.10 μM). The medium renewals with or without agent in cultures were conducted every 3 days. After 11 days HUVECs were fixed and stained with anti-CD31 antibody in line with the manufacturer’s protocols. The tube formation area were measured using Angiogenesis Image Analyzer (Kurabo, Neyagawa, Osaka, Japan) with suaramin (70 μM) as positive control.

HCT116 = assay: Cell proliferation assay (MTT); format: cell-based, human; conditions: for IC50: Homo sapiens, HCT-116, MTT, 72 h incubation; for Selective Index (SI) HCT116: relative to Detroit 551 normal fibroblasts
Method: (§1) At the end of the incubation, cell viability was determined by 3-(4,5-dimethylthiazol-2-yl)-2,5-diphenyl tetrazolium bromide (MTT). The MTT formazan crystals were dissolved by DMSO, and the absorbance at 570 nm using a microplate spectrophotometer (Thermo Fisher Scientific, Waltham, MA, USA).

786-O = assay: Cell proliferation assay (MTT); format: cell-based, human; conditions: for IC50: Homo sapiens, 786-0, MTT, 72 h incubation; for Selective Index (SI) 786-O: relative to Detroit 551 normal fibroblasts
Method: as §1

NCI-H460 = assay: Cell proliferation assay (MTT); format: cell-based, human; conditions: for IC50: Homo sapiens, NCI-H460, MTT, 72 h incubation; for Selective Index (SI) NCI-H460: relative to Detroit 551 normal fibroblasts
Method: as §1

VEGFR-2 = target: T2, VEGFR-2 (Homo sapiens, UniProt P35968); assay: In vitro kinase assay (HotSpot, 33P); format: biochemical; conditions: ATP 10.0 μM; for inhibition at 0.05 µM: 50 nM compound
T2 construct: purchased Reaction Biology Corporation
Method: (§2) Briefly, specific kinase and substrate and required cofactors were prepared in reaction buffer. Test compounds were added into the reaction, after 20 min, a mixture of ATP (Sigma, St. Louis, MO, USA) and ^33P ATP (Perkin Elmer, Waltham, MA, USA) was added to make a final concentration of 10.0 μM. Reactions were stood at room temperature for 120 min, and spot the reactions onto P81 ion exchange filter paper (Whatman Inc., Piscataway, NJ, USA). Unbound phosphate was removed by extensive washing of filters in 0.1% phosphoric acid. Kinase activity data was reported as the percent remaining kinase activity in test compounds compared to solvent control (DMSO).

PDGFRβ = target: T3, PDGFRβ (Homo sapiens, UniProt P09619); assay: In vitro kinase assay (HotSpot, 33P); format: biochemical; conditions: ATP 10.0 μM; for inhibition at 0.05 µM: 50 nM compound
T3 construct: purchased Reaction Biology Corporation
Method: as §2

HCT116 cells = assay: Cell cycle profile by image cytometry; format: cell-based, human; conditions: 24 h
Method: Cell cycle profiles of HCT116 cells were determined with an NC-3000 image cytometer (ChemoMetec, Allerod, Denmark) in accordance with manufacturer’s protocol. Briefly, cells were seeded at 200,000 cells/well on a 6-well plate for 24 h. […] After incubation for 24 h, 100,000 cells were harvested and centrifuged for 5 min at 400 g at room temperature, washed once with PBS […] and resuspended with 50 μL of lysis buffer (ChemoMetec, Allerod, Denmark) containing 10 μg/mL of 2-(4-amidinophenyl)-1H-indole-6-carboxamidine (DAPI, ChemoMetec, Allerod, Denmark). The cells were incubated at 37 °C for 5 min, 50 μL of stabilization buffer (ChemoMetec, Allerod, Denmark) was added to the solution, and the cellular fluorescence was measured with an NC-3000 image cytometer using NC-SlideA8 (ChemoMetec, Allerod, Denmark). The NC-3000 software (ChemoMetec, Allerod, Denmark) was used for image acquisition, image analysis and quantification and data visualization.

Detroit 551 = assay: Cell proliferation assay (MTT) on normal fibroblasts; format: cell-based; conditions: Homo sapiens, 72 h incubation, normal fibroblast cells
Method: The HCT116 (human colon cancer cells, BCRC 60349) and Detroit 551 (human normal fibroblast cells, BCRC 60118) were maintained in DMEM (Gibco, Grand Island, NY, USA) containing 10% FBS (HyClone, Logan, UT, USA). NCI-H460 (BCRC 60373) and 786-O (BCRC 60243) were maintained in RPMI 1640 (Gibco, Grand Island, NY, USA) containing 10% FBS (HyClone, Logan, UT, USA). They were incubated at 37 °C in a 5% CO2 atmosphere.
The cells incubated as above were plated at a density of 2000 cells/well (cancer cells) or 10,000 cells/well (Detroit 551) on a 96-well plate for 24 h; serial dilutions of indicated compounds were added and incubated for additional 72 h. At the end of the incubation, cell viability was determined by 3-(4,5-dimethylthiazol-2-yl)-2,5-diphenyl tetrazolium bromide (MTT). The MTT formazan crystals were dissolved by DMSO, and the absorbance at 570 nm using a microplate spectrophotometer (Thermo Fisher Scientific, Waltham, MA, USA).

[1] = test system: Detroit 551, HCT116, NCI-H460 and 786-O cell lines; assay: Acute cytotoxicity (WST-8, Cell-Counting-Kit-8); format: cell-based, human; conditions: 10 μM, 6 h, WST-8, all tested cell lines
Method: Cells were seeded at 5000 cells/well on a 96-well plate for 24 h. The indicated compounds in different concentration (100 μL) were added to cells. Post 6 h, old medium was aspirated, and cells were washed three times with PBS. WST-8 (Dojindo, Rockville, MD, USA) (10 µL) was added to each well, and the absorbance of the plate was recorded at 450 nm on a microplate spectrophotometer (Thermo Fisher Scientific, Waltham, MA, USA).

T2 sequence (P35968 20-1356): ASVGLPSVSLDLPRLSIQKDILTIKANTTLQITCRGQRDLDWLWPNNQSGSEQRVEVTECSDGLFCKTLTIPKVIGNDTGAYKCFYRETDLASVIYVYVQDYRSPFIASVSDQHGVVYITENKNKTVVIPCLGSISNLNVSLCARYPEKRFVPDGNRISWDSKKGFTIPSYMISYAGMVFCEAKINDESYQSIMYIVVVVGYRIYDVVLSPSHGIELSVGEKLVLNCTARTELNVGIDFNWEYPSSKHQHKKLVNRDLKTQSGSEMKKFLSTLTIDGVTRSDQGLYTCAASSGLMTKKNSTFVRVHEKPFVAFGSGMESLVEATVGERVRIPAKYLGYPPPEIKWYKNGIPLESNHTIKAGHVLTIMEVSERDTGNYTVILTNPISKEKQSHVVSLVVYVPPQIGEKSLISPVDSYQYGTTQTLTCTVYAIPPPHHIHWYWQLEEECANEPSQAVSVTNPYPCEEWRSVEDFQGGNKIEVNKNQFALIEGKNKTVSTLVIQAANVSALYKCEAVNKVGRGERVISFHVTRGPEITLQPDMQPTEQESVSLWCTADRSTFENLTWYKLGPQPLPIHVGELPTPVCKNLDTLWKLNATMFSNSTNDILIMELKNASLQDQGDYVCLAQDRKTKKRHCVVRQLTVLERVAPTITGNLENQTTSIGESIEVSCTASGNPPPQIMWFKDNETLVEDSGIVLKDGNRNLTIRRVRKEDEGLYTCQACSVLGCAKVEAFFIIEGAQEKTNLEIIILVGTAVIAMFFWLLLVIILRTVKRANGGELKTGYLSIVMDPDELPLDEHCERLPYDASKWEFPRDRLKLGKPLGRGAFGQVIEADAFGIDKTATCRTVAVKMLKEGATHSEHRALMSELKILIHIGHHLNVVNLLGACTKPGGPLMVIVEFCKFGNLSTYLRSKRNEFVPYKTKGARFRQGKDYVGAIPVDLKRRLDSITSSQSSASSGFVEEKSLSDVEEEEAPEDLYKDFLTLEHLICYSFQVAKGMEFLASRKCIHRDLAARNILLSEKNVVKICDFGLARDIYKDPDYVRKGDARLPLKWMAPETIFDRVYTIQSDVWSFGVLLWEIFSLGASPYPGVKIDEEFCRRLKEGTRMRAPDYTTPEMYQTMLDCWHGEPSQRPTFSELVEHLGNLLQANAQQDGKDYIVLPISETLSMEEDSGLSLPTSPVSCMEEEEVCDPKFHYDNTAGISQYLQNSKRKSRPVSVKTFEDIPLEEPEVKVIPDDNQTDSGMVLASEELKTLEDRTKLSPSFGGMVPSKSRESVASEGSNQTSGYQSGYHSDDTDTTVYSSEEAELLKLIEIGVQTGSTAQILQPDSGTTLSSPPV
T3 sequence (P09619 33-1106): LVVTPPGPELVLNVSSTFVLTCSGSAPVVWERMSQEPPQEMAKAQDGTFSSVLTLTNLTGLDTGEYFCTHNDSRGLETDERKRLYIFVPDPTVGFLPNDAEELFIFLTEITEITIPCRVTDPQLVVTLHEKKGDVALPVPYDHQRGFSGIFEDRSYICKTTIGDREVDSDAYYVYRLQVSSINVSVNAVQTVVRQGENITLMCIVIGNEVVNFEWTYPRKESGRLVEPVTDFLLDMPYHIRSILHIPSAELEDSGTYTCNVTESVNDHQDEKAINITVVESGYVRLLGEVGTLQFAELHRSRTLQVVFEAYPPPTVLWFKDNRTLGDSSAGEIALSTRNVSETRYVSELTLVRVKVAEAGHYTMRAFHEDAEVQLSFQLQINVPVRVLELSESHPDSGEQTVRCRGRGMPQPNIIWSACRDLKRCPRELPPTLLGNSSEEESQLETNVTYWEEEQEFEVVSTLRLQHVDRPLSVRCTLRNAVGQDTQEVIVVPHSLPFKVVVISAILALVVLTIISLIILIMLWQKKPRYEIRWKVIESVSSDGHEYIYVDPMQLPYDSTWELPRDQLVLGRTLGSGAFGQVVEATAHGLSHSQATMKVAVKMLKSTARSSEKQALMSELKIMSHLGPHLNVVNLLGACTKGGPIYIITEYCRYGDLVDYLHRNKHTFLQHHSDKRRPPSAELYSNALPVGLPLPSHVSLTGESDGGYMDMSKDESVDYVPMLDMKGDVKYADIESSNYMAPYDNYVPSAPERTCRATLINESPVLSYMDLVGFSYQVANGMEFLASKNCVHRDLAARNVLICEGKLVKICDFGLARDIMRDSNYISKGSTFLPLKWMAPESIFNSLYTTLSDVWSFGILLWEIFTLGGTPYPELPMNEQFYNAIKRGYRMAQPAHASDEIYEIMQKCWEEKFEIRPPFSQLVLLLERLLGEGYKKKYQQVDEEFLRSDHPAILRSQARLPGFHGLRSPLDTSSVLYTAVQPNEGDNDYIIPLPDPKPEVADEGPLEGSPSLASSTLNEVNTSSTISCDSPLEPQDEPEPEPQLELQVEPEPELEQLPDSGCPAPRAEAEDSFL

SMILES	inhibition at 1 µM (aurora A) [%]	melting point [°C]	IC50 (HUVECs) [nM]	IC50 (HCT116) [µM]	Selective Index (SI) HCT116 (HCT116)	IC50 (786-O) [µM]	IC50 (NCI-H460) [µM]	inhibition at 0.05 µM (VEGFR-2) [%]	IC50 (VEGFR-2) [nM]	inhibition at 0.05 µM (PDGFRβ) [%]	IC50 (PDGFRβ) [nM]	cell cycle profile effect (HCT116 cells; 5.0 μM)	IC50 (Detroit 551) [µM]	tube formation IC50, fold stronger than sunitinib (HUVECs; vs sunitinib)	Selective Index (SI) 786-O (786-O)	Selective Index (SI) NCI-H460 (NCI-H460)	cell cycle profile effect (HCT116 cells; 1.0 μM)	acute cellular toxicity [1]	anti-proliferation potency against HCT116, fold stronger than 8 (HCT116; vs 8 (C(5)-H)) [fold]	anti-proliferation potency against HCT116, fold stronger than sunitinib (HCT116; vs sunitinib)
CCN(CC)CCN1Cc2[nH]c(/C=C3\C(=O)Nc4ccc(F)cc43)c(C)c2C1=O [Compound 9, (Z)-3-((5-(2-(Diethylamino)ethyl)-3-methyl-4-oxo-1,4,5,6-tetrahydropyrrolo[3,4-b]pyrrol-2-yl)methylene)-5-fluoroindolin-2-one]	93.1	245 to 246	367 ± 16	2.94 ± 0.66	>3.4	> 10	> 10	35	111	36	97.5	G0/G1 cell cycle arrest	> 10	–	–	–	–	–	–	–
CCN(CC)CCN1Cc2[nH]c(/C=C3\C(=O)Nc4ccc(Br)cc43)c(C)c2C1=O [Compound 11, (Z)-5-Bromo-3-((5-(2-(diethylamino)ethyl)-3-methyl-4-oxo-1,4,5,6-tetrahydropyrrolo[3,4-b]pyrrol-2-yl)methylene)indolin-2-one]	93.1	266 to 267	179 ± 29	1.05 ± 0.18	>9.52	7.06 ± 0.3	6.57 ± 1.64	64	24.7	68	16.1	–	> 10	approximately 2 fold	>1.42	>1.52	increase phase of polyploid	–	–	–
CCN(CC)CCN1Cc2[nH]c(/C=C3\C(=O)Nc4ccccc43)c(C)c2C1=O [Compound 8, (Z)-3-((5-(2-(Diethylamino)ethyl)-3-methyl-4-oxo-1,4,5,6-tetrahydropyrrolo[3,4-b]pyrrol-2-yl)methylene)indolin-2-one]	95.9	167 to 168	310 ± 15	4.25 ± 1.88	>2.35	> 10	> 10	56	30.2	64	22.4	increase phase of polyploid	> 10	–	–	–	–	–	–	–
CCN(CC)CCNC(=O)c1c(C)[nH]c(/C=C2\C(=O)Nc3ccc(F)cc32)c1C [Sunitinib, sunitinib, reference compound]	–	–	387 ± 16	3.42 ± 0.57	–	6.27 ± 0.67	6.23 ± 0.57	–	–	44	–	G0/G1 cell cycle arrest	–	–	–	–	–	nearly free from acute cellular toxicity	–	–
CCN(CC)CCN1Cc2[nH]c(/C=C3\C(=O)Nc4ccc(I)cc43)c(C)c2C1=O [Compound 12, (Z)-3-((5-(2-(Diethylamino)ethyl)-3-methyl-4-oxo-1,4,5,6-tetrahydropyrrolo[3,4-b]pyrrol-2-yl)methylene)-5-iodoindolin-2-one]	92.9	267 to 268	313 ± 37	0.42 ± 0.16	21.93	7.76 ± 0.29	2.95 ± 0.83	58	35.1	62	29.3	–	9.21 ± 1.61	–	1.19	3.12	G0/G1 cell cycle arrest	–	~10	approximately 8 fold
CCN(CC)CCN1Cc2[nH]c(/C=C3\C(=O)Nc4ccc(Cl)cc43)c(C)c2C1=O [Compound 10, (Z)-5-Chloro-3-((5-(2-(diethylamino)ethyl)-3-methyl-4-oxo-1,4,5,6-tetrahydropyrrolo[3,4-b]pyrrol-2-yl)methylene)indolin-2-one]	93.7	252 to 253	299 ± 70	3.09 ± 0.7	>3.23	7.3 ± 1.2	> 10	58	35	64	24.9	G0/G1 cell cycle arrest	> 10	–	>1.37	–	–	–	–	–
